In ChEMBL document CHEMBL1131475, “Discovery of ritonavir, a potent inhibitor of HIV protease with high oral bioavailability and clinical efficacy” (J Med Chem, 1998):

Experiments:
in vivo [1] = settings: rat, plasma, po, 10 mg/kg
in vivo [2] = settings: rat, plasma, iv
in vivo [3] = settings: rat, plasma, po
in vivo [4] = settings: rat, plasma, po; remark: listed apart in the source
[5] = Oral bioavailability in rat; assay type: ADME, organism-based; settings: in vivo

Row | SMILES | Cmax (in vivo [1]) | half-life (in vivo [2]) | AUC (in vivo [3]) | Tmax (in vivo [4]) | bioavailability [5] | F [5]
1 | CC(C)c1nc(CCC(=O)NC(C(=O)N[C@@H](Cc2ccccc2)[C@@H](O)C[C@H](Cc2ccccc2)NC(=O)OCc2cccnc2)C(C)C)cs1 (stereo partly drawn) | 320 nM | 54.6 min | 410 ng·h/mL | 6 min | 9% | –
2 | CC(C)c1nc(CN(C)C(=O)NC(C(=O)N[C@@H](Cc2ccccc2)C[C@H](O)[C@H](Cc2ccccc2)NC(=O)OCc2cccnc2)C(C)C)co1 (stereo partly drawn) | 2130 nM | 13.2 min | 1100 ng·h/mL | 15 min | 18% | –
3 | CC(C)c1nc(CN(C)C(=O)NC(C(=O)N[C@@H](Cc2ccccc2)[C@@H](O)C[C@H](Cc2ccccc2)NC(=O)OCc2cccnc2)C(C)C)co1 (stereo partly drawn) | 290 nM | 17.4 min | 90 ng·h/mL | 6 min | 3.3% | –
4 | COCc1ncc(COC(=O)NC(C(=O)N[C@@H](Cc2ccccc2)[C@@H](O)C[C@H](Cc2ccccc2)NC(=O)OCc2cccnc2)C(C)C)s1 (stereo partly drawn) | 380 nM | 22.2 min | 420 ng·h/mL | 9 min | 11% | –
5 | CCc1cccc(CN(C)C(=O)NC(C(=O)N[C@@H](Cc2ccccc2)[C@@H](O)C[C@H](Cc2ccccc2)NC(=O)OCc2cccnc2)C(C)C)n1 (stereo partly drawn) | 1530 nM | 31.2 min | 730 ng·h/mL | 9 min | 23% | –
6 | CCc1cccc(COC(=O)NC(C(=O)N[C@@H](Cc2ccccc2)[C@@H](O)C[C@H](Cc2ccccc2)NC(=O)OCc2cccnc2)C(C)C)n1 (stereo partly drawn) | 1260 nM | 44.4 min | 810 ng·h/mL | 15 min | 16% | –
7 | CC(C)c1nc(COC(=O)NC(C(=O)N[C@@H](Cc2ccccc2)[C@@H](O)C[C@H](Cc2ccccc2)NC(=O)OCc2cccnc2)C(C)C)cs1 (stereo partly drawn) | 470 nM | 40.8 min | 220 ng·h/mL | 15 min | 3% | –
8 | Cc1cccc(COC(=O)NC(C(=O)N[C@@H](Cc2ccccc2)[C@@H](O)C[C@H](Cc2ccccc2)NC(=O)OCc2cccnc2)C(C)C)n1 (stereo partly drawn) | 1150 nM | 44.4 min | 610 ng·h/mL | 19.8 min | 7.5% | –
9 | CC(C)C(NC(=O)N(C)Cc1cscn1)C(=O)N[C@@H](Cc1ccccc1)[C@@H](O)C[C@H](Cc1ccccc1)NC(=O)OCc1cccnc1 (stereo partly drawn) | 3130 nM | 84 min | 1660 ng·h/mL | 22.2 min | 35% | –
10 | CC(C)c1nc(CN(C)C(=O)NC(C(=O)N[C@@H](Cc2ccccc2)C[C@H](O)[C@H](Cc2ccccc2)NC(=O)OCc2cncs2)C(C)C)cs1 (stereo partly drawn) | 2620 nM | 72 min | 7750 ng·h/mL | 120 min | 78% | –
11 | CC(C)c1nc(CN(C)C(=O)NC(C(=O)N[C@@H](Cc2ccccc2)C[C@H](O)[C@H](Cc2ccccc2)NC(=O)OCc2cnco2)C(C)C)cs1 (stereo partly drawn) | 1590 nM | 33.6 min | 2650 ng·h/mL | 34.8 min | 23% | –
12 | CCc1nc(CN(C)C(=O)NC(C(=O)N[C@@H](Cc2ccccc2)C[C@H](O)[C@H](Cc2ccccc2)NC(=O)OCc2cccnc2)C(C)C)cs1 (stereo partly drawn) | 1490 nM | 72 min | 1050 ng·h/mL | 15 min | 17% | –
13 | CC(C)C(NC(=O)OCc1csc(N2CCOCC2)n1)C(=O)N[C@@H](Cc1ccccc1)C[C@H](O)[C@H](Cc1ccccc1)NC(=O)OCc1cccnc1 (stereo partly drawn) | – | 19.2 min | – | – | 0% | –
14 | CCc1nc(CN(C)C(=O)NC(C(=O)N[C@@H](Cc2ccccc2)[C@@H](O)C[C@H](Cc2ccccc2)NC(=O)OCc2cncs2)C(C)C)cs1 (stereo partly drawn) | 5120 nM | – | 9370 ng·h/mL | 60 min | – | 167%
15 | Cc1cccc(COC(=O)NC(C(=O)N[C@@H](Cc2ccccc2)[C@@H](O)C[C@H](Cc2ccccc2)NC(=O)OCc2ccoc2)C(C)C)n1 (stereo partly drawn) | – | 13.2 min | – | – | 0% | –
